Test results taken from patent US6526316B2, “Iontophoresis method” (Hisamitsu Pharmaceutical Co., Inc., priority 1997, dated 2003).

Key:
[1] = Serum hPTH(1-34) concentration after repeated intradermal injection (Reference Example 1); type: in vivo, rat; conditions: intradermal injection three times at 1 hour intervals, 1 μg/kg or 5 μg/kg per dose
Experimental: Female SD rats (12 weeks old) were ovariectomized and intradermally injected with an aqueous solution of hPTH(1-34) three times at 1 hour intervals at a one time administration dose of 1 μg/kg or 5 μg/kg. Concentration of hPTH(1-34) in serum of the rats was measured by radio immunoassay.

[2] = Serum hPTH(1-34) concentration during transdermal iontophoresis (Example 1); type: in vivo, rat; conditions: male SD rats; iontophoresis anode patch 200 μg or 400 μg; 0.1 mA/cm^2, 30 min current and 45 min rest repeated three times; radio immunoassay; FIG. 3
Experimental: Hair on the abdominal skin of male, SD rats (7 weeks old) was shaved off. To the shaved part was attached the iontophoresis apparatus which comprises an anode patch containing 200 μg or 400 μg of hPTH(1-34) and a cathode patch without hPTH(1-34), as mentioned above. The apparatus was connected to an electric generator (50 kHz and 50% duty), and an electric current application using constant transport current (0.1 mA/cm^2) for 30 minutes and a 45-minute rest interval (corresponding to blood concentration of one pulse) was repeated three times. During the repetitions, blood was taken periodically, and concentration of hPTH(1-34) in serum was measured by radio immunoassay.

## CC[C@H](C)[C@H](NC(=O)[C@H](CCC(=O)O)NC(=O)[C@H](CO)NC(=O)[C@@H](NC(=O)[C@@H](N)CO)C(C)C)C(=O)N[C@@H](CCC(N)=O)C(=O)N[C@@H](CC(C)C)C(=O)N[C@@H](CCSC)C(=O)N[C@@H](Cc1cnc[nH]1)C(=O)N[C@@H](CC(N)=O)C(=O)N[C@@H](CC(C)C)C(=O)NCC(=O)N[C@@H](CCCCN)C(=O)N[C@@H](Cc1cnc[nH]1)C(=O)N[C@@H](CC(C)C)C(=O)N[C@@H](CC(N)=O)C(=O)N[C@@H](CO)C(=O)N[C@@H](CCSC)C(=O)N[C@@H](CCC(=O)O)C(=O)N[C@@H](CCCN=C(N)N)C(=O)N[C@H](C(=O)N[C@@H](CCC(=O)O)C(=O)N[C@@H](Cc1c[nH]c2ccccc12)C(=O)N[C@@H](CC(C)C)C(=O)N[C@@H](CCCN=C(N)N)C(=O)N[C@@H](CCCCN)C(=O)N[C@@H](CCCCN)C(=O)N[C@@H](CC(C)C)C(=O)N[C@@H](CCC(N)=O)C(=O)N[C@@H](CC(=O)O)C(=O)N[C@H](C(=O)N[C@@H](Cc1cnc[nH]1)C(=O)N[C@@H](CC(N)=O)C(=O)N[C@@H](Cc1ccccc1)C(=O)O)C(C)C)C(C)C [hPTH(1-34)]
[1]
  maximum blood concentrations vs dose: proportional to the injected doses
[1]; ovariectomized female SD rats, radio immunoassay, FIG. 1
  blood concentration profile of hPTH(1-34) in serum: three sharp pulses
[2]
  blood concentration profile of hPTH(1-34) in serum: three sharp peaks
